Source: US20100144660A1, “USE OF N,N-DIETHYL-2-[-4-(PHENYLMETHYL)-PHENOXY]ETHANAMINE MONOHYDROCHLORIDE (DPPE) IN CANCER THEREAPY” (YM Biosciences Inc., priority 2001, published 2010)
Where two headings read alike, the source gives them in different places.

What was measured:
[1] = competition assays; cited from earlier work
[2] = test system: breast cancer patients who relapsed following surgery; assay: Phase III clinical trial: DPPE and doxorubicin versus doxorubicin alone, survival analysis by subgroup; format: in vivo, human; conditions: for 1 yr (one year survival) / MST (median survival time): only ER known; for median survival time (MST) / one year survival: duration 6-36 month, prior chemotherapy group (FIG. 27), DPPE added to doxorubicin versus doxorubicin alone
Description: Two arms of treatment were involved in this trial. Patients were randomly selected to participate in either arm. In one arm, patients were treated with DPPE and doxorubicin, in the other arm patients were treated with doxorubicin alone.
In the trial, patients were permitted to stay on doxorubicin for a maximum of about 7 cycles (5 months). […] DPPE was administered to patients in the amount of 6 mg/kg (or 240 mg/M^2) over 80 minutes, with the concurrent administration of doxorubicin over the last 20 minutes at a […] of 60-90 mg/M^2.
The patients in the trial were assigned to subgroups based on duration, i.e. the length of time between the initial diagnosis of breast cancer and the appearance of advanced disease. The subgroups were: (i) less than or equal to 6 months, (ii) between 6 months and 36 months and (iii) more than 36 months.
For this subgroup analysis, the 3 duration subgroups (<6 m, 6-36 m and >36 m) are further subdivided into groups of patients that (i) have undergone prior chemotherapy, and (ii) have not undergone prior chemotherapy.
For this analysis, the patients in the trial were divided into subgroups based on Eastern Cooperative Oncology Group (ECOG) Performance Status (PS).
In this example, the patients were divided into subgroups of those patients that originated from Eastern Europe and those that originated mainly from Western Europe and North America.

[3] = test system: MCF-7 breast cancer cells; conditions: ER−/AEBS+ or ER+/AEBS+ cells; cited from earlier work
[4] = test system: normal and malignant cells; conditions: cited from earlier work
[5] = test system: intracellular histamine receptors; conditions: cited from earlier work
[6] = test system: hormone-unresponsive metastatic prostate cancer; conditions: intravenous infusion of DPPE over approximately one hour prior to cyclophosphamide; cited from earlier work
[7] = cited from earlier work
[8] = Geographically restricted subset
[9] = Geographically restricted subset (Eastern Europe excluded)
[10] = duration <36 m, ER+ (known ER status)
[11] = duration <36 m, ER− (known ER status)
[12] = duration >36 M, ER+ (known ER status)
[13] = duration >36 m, ER− (known ER status)
[14] = response PD (progressive disease)

CCN(CC)CCOc1ccc(C(=O)c2ccc(F)cc2)cc1 [DFPE, N,N-diethyl-2-[4-(4′-fluorophenone)-phenoxy]ethanamine]
potency compared to DPPE [1]: greater potency

COc1cccc2c1C(=O)c1c(O)c3c(c(O)c1C2=O)C[C@@](O)(C(=O)CO)C[C@@H]3O[C@H]1C[C@H](N)[C@H](O)[C@H](C)O1 [DOX, doxorubicin]
1 yr survival ([2]; ECOG PS 0): 75%
MST ([2]; ECOG PS 0): 20.3 m
1 yr survival ([2]; ECOG PS 1): 48%
MST ([2]; ECOG PS 1): 11.7 m
1 yr survival ([2]; ECOG PS 2): 33%
MST ([2]; ECOG PS 2): 5.9 m
1 yr (one year survival) ([2]; ER+ patients): 62%
MST (median survival time) ([2]; ER+ patients): 16.5 m
1 yr (one year survival) ([2]; ER− patients): 36%
MST (median survival time) ([2]; ER− patients): 9.5 m
Survival by ECOG = 0, 1 yr [2, 8]: 63%
Survival by ECOG = 0, MST [2, 8]: 16.5 m
Survival by ECOG = 1, 1 yr [2, 8]: 42%
Survival by ECOG = 1, MST [2, 8]: 11.5 m
Survival by ER status ER−, 1 yr [2, 8]: 39%
Survival by ER status ER−, MST [2, 8]: 9 m
Survival by ER+, 1 yr [2, 8]: 55%
Survival by ER+, MST [2, 8]: 15.5 m
Survival by duration: 6-36 m, MST [2, 8]: 9 m
Survival by response: CR/PR, 1 yr [2, 8]: 62%
Survival by response: SD, 1 yr [2, 8]: 53%
Survival by response: SD, MST [2, 8]: 12 m
Survival for ER+ vs ER− within the arm [2, 8]: ER+ considerably better than ER−
Overall survival 1 yr [2, 9]: 50%
Overall survival MST [2, 9]: 12 m
Overall survival 1 yr ([2]; Whole trial (Table 10)): 60%
Overall survival MST ([2]; Whole trial (Table 10)): 15.6 m
Survival by ECOG = 0, 1 yr ([2]; Whole trial (Table 10)): 75%
Survival by ECOG = 0, MST ([2]; Whole trial (Table 10)): 20.3 m
Survival by ECOG = 1, 1 yr ([2]; Whole trial (Table 10)): 48%
Survival by ECOG = 1, MST ([2]; Whole trial (Table 10)): 11.7 m
Survival by ER status ER−, 1 yr ([2]; Whole trial (Table 10)): 36%
Survival by ER status ER−, MST ([2]; Whole trial (Table 10)): 9.5 m
Survival by ER+, 1 yr ([2]; Whole trial (Table 10)): 62%
Survival by ER+, MST ([2]; Whole trial (Table 10)): 16 m
Survival by duration: 6-36 m, MST ([2]; Whole trial (Table 10)): 11.5 m
Survival by response: CR/PR, 1 yr ([2]; Whole trial (Table 10)): 74%
Survival by response: SD, 1 yr ([2]; Whole trial (Table 10)): 59%
Survival by response: SD, MST ([2]; Whole trial (Table 10)): 17 m
Survival for ER+ vs ER− within the arm ([2]; Whole trial (Table 10)): ER+ considerably better than ER−
lived on average (survival) ([2]; all breast cancer patients of the trial): fifteen
median survival time (MST) [2]: 10.7 months
one year survival [2]: 40%
1 yr survival ([2]; duration <6 m): 56%
MST ([2]; duration <6 m): 15 m
1 yr survival [2, 10]: 52%
MST [2, 10]: 15.5 m
1 yr survival [2, 11]: 36%
MST [2, 11]: 9.5 m
1 yr survival ([2]; duration >6 but <36 m): 45%
MST ([2]; duration >6 but <36 m): 11.5 m
1 yr survival [2, 12]: 82%
MST [2, 12]: 18 m
1 yr survival ([2]; duration >36 m): 77%
MST ([2]; duration >36 m): 20.3 m
1 yr survival [2, 13]: 66%
MST [2, 13]: 12 m
median survival time (FIG. 22) ([2]; duration >36 months): 28.6356
median survival time (FIG. 21) ([2]; duration of ≦36 months): 12.1973
1 yr survival ([2]; response CR/PR): 74%
MST ([2]; response CR/PR): 28.5 m
1 yr survival [2, 14]: 34%
MST [2, 14]: 10.5 m
1 yr survival ([2]; response SD (stable disease)): 59%
MST ([2]; response SD (stable disease)): 17 m

CCN(CC)CCOc1ccc(Cc2ccccc2)cc1.Cl [DPPE, N,N-diethyl-2-[-4-(phenylmethyl)-phenoxy]ethanamine monohydrochloride]
Survival by response: PD, comparison of arms ([2]; Geographically restricted subset, DPPE/DOX versus DOX): DPPE a little better at first
survival benefit from the addition of DPPE ([2]; duration 6-36 m, no prior chemotherapy group): little, if any, benefit
median survival time (MST) [2]: > 17.5 months
one year survival [2]: under 70%
survival benefit from the addition of DPPE ([2]; duration >36 m, prior and no prior chemotherapy subgroups): neither of the subgroups show any benefit
in vitro growth of MCF-7 breast cancer cells [3]: inhibit
cell proliferation in vivo ([4]; animal model): inhibit normal cell proliferation while promoting malignant cell proliferation
interaction with doxorubicin (Adriamycin) ([4]; tumour-bearing animals treated concurrently with DPPE): act synergistically
antagonism of intracellular histamine receptors [5]: potent antagonist
effect on anti-cancer activity and toxicity of cyclophosphamide [6]: potentiate the anti-cancer activity and ameliorate the toxicity
toxicity ([7]; 4 mg/kg (160 mg/M^2) over 1 hour intravenously): non-toxic
clinical side effects ([7]; 8 mg/M^2 over 24 to 72 hours): do not result in clinical side effects
toxicity ([7]; 240 mg/M^2 over 1 hour): may result in CNS toxicity
